{
  "source": "patent US8278349B2",
  "about": "“Cancer treatment using FTS and 2-deoxyglucose” (Ramot at Tel-Aviv University Ltd., priority 2005, dated 2012)",
  "key": {"[1]": {"system": "primary pancreatic tumor cell line pp109", "assay": "Cell death by Hoechst 33258 staining, pp109", "type": "cell-based", "conditions": "single-drug or combined treatment", "experimental": "(§1) All materials for cell culture and determination of cell growth and death were detailed in earlier publications. [Blum, R., Jacob-[…]. and Kloog, Y., Cancer Res 65:999-1006 (2005); […]., Jacob-[…]. and Kloog, Y., Clin Cancer Res 11:4321-30 (2005)]. FTS was provided by Concordia Pharmaceuticals, Inc. 2DG was purchased from Sigma (cat #D3179). Cells were maintained in DMEM/10% FCS at a constant temperature of 37° C. in a humidified atmosphere of 95% air/5% CO2. Cells were plated in 1 ml DMEM/5% FCS at a density of 10,000 in 24 wells plates, and treated 24 hours (h) later with 50 μM or 75 μM FTS or with the vehicle (0.1% Me2SO). Forty-eight (48) h later the medium was replaced by a medium containing either 10 mM glucose or 5 mM glucose plus 5 mM 2DG. […] Following incubation for 24 or 48 h, as specified in each experiment, the cells were stained with Hoechst 33258 (1 μg/mL) to determine the extent of cell death; the cells were incubated with the reagent for 5 min and stained nuclei were visualized by a fluorescence microscope. […] Data were collected by imaging each well then analyzed as follows: the total number of cells was calculated of the phase contrast images and the number of dead cells was calculated of the fluorescence images. The percentage of Hoechst stained dead cells ([dead cells/total number of cells]×100) was calculated and presented as means±SD."}, "[2]": {"system": "human glioblastoma cell line U373", "assay": "Cell number from phase contrast images, U373", "type": "cell-based", "conditions": "single or combined treatment", "experimental": "as §1"}, "[3]": {"system": "primary pancreatic tumor cell line pp161", "assay": "Cell death by Hoechst 33258 staining, pp161", "type": "cell-based", "conditions": "single-drug or combined treatment", "experimental": "as §1"}, "[4]": {"system": "primary pancreatic tumor cell line pp109", "assay": "Cell number from phase contrast images, pp109", "type": "cell-based", "experimental": "(§2) All materials for cell culture and determination of cell growth and death were detailed in earlier publications. [Blum, R., Jacob-Hirsch, J., Amariglio, N., Rechavi, G. and Kloog, Y., Cancer Res 65:999-1006 (2005); Yaari, S., Jacob-Hirsch, J., Amariglio, N., Haklai, R., Rechavi, G. and Kloog, Y., Clin Cancer Res 11:4321-30 (2005)]. FTS was provided by Concordia Pharmaceuticals, Inc. 2DG was purchased from Sigma (cat #D3179). Cells were maintained in DMEM/10% FCS at a constant temperature of 37° C. in a humidified atmosphere of 95% air/5% CO2. Cells were plated in 1 ml DMEM/5% FCS at a density of 10,000 in 24 wells plates, and treated 24 hours (h) later with 50 μM or 75 μM FTS or with the vehicle (0.1% Me2SO). […] Following incubation for 24 or 48 h, as specified in each experiment, the cells were stained with Hoechst 33258 (1 μg/mL) to determine the extent of cell death; the cells were incubated with the reagent for 5 min and stained nuclei were visualized by a fluorescence microscope. […]\n(§3) All experiments were performed and repeated at least four times. Data were collected by imaging each well then analyzed as follows: the total number of cells was calculated of the phase contrast images and the number of dead cells was calculated of the fluorescence images. The percentage of Hoechst stained dead cells ([dead cells/total number of cells]×100) was calculated and presented as means±SD."}, "[5]": {"system": "primary pancreatic tumor cell line pp 78", "assay": "Cell number from phase contrast images, pp 78", "type": "cell-based", "experimental": "as §2, §3"}, "[6]": {"system": "pancreatic carcinoma cell line panc-1", "assay": "Cell death by Hoechst 33258 staining, panc-1", "type": "cell-based", "conditions": "for percentage of dead cells: panc-1", "experimental": "All materials for cell culture and determination of cell growth and death were detailed in earlier publications. [Blum, R., Jacob-[…]. and Kloog, Y., Cancer Res 65:999-1006 (2005); […]., Jacob-[…]. and Kloog, Y., Clin Cancer Res 11:4321-30 (2005)]. FTS was provided by Concordia Pharmaceuticals, Inc. 2DG was purchased from Sigma (cat #D3179). Cells were maintained in DMEM/10% FCS at a constant temperature of 37° C. in a humidified atmosphere of 95% air/5% CO2. Cells were plated in 1 ml DMEM/5% FCS at a density of 10,000 in 24 wells plates, and treated 24 hours (h) later with 50 μM or 75 μM FTS or with the vehicle (0.1% Me2SO). Forty-eight (48) h later the medium was replaced by a medium containing either 10 mM glucose or 5 mM glucose plus 5 mM 2DG. The FTS treated groups were replenished with the drug and the controls with 0.1% Me2SO. Following incubation for 24 or 48 h, as specified in each experiment, the cells were stained with Hoechst 33258 (1 μg/mL) to determine the extent of cell death; the cells were incubated with the reagent for 5 min and stained nuclei were visualized by a fluorescence microscope. Additionally, phase contrast images were taken. All experiments were performed and repeated at least four times. Data were collected by imaging each well then analyzed as follows: the total number of cells was calculated of the phase contrast images and the number of dead cells was calculated of the fluorescence images. The percentage of Hoechst stained dead cells ([dead cells/total number of cells]×100) was calculated and presented as means±SD."}, "[7]": {"system": "human glioblastoma cell line U373", "assay": "Cell death by Hoechst 33258 staining, U373", "type": "cell-based", "conditions": "single or combined treatment", "experimental": "as §1"}, "[8]": {"system": "primary pancreatic tumor cell line pp161", "assay": "Cell number from phase contrast images, pp161", "type": "cell-based", "experimental": "as §2, §3"}, "[9]": {"system": "pancreatic carcinoma cell line panc-1", "assay": "Cell number from phase contrast images, panc-1", "type": "cell-based", "experimental": "as §2, §3"}, "[10]": {"system": "human glioblastoma cell line U87", "assay": "Cell death by Hoechst 33258 staining, U87", "type": "cell-based", "conditions": "single or combined treatment", "experimental": "as §1"}, "[11]": {"system": "human glioblastoma cell line U87", "assay": "Cell number from phase contrast images, U87", "type": "cell-based", "conditions": "single or combined treatment", "experimental": "as §1"}, "[12]": {"system": "primary pancreatic tumor cell line pp 78", "assay": "Cell death by Hoechst 33258 staining, pp 78", "type": "cell-based", "conditions": "single-drug or combined treatment", "experimental": "as §1"}, "Mia Paca cells": {"system": "Mia Paca cells", "conditions": "cited from earlier work"}, "panc-1 cells": {"system": "panc-1 cells", "conditions": "cited from earlier work"}, "GBM cells": {"system": "GBM cells", "conditions": "reported (Blum 2005; Yaari 2005); cited from earlier work"}, "[13]": {"conditions": "previously shown (Kloog and Cox 2000)"}},
  "data": [
    {"smiles": "OCC1OC(O)CC(O)C1O", "note": "[2DG, 2-deoxy-D-glucose, reference compound]", "values": [
      {"measurement": "cell death above the levels observed in the controls", "setting": "[1]", "result": "induced death"},
      {"measurement": "total cell number", "setting": "[2]", "result": "induced a decrease in total cell number"},
      {"measurement": "cell death above the levels observed in the controls", "setting": "[3]", "result": "did not cause a significant increase in death"},
      {"measurement": "decrease in cell number", "setting": "[4]; 2DG alone, compared with FTS", "result": "decrease in cell number, but to a lower extent"},
      {"measurement": "decrease in cell number", "setting": "[5]; 2DG alone, compared with FTS", "result": "decrease in cell number, but to a lower extent"},
      {"measurement": "cell survival", "setting": "[6]; 2DG (5 mM) combined with equimolar glucose, cell death similar to controls (3%)", "result": "did not affect cell survival"},
      {"measurement": "percentage of dead cells", "setting": "[6]; 2DG alone (5 mM glucose plus 5 mM 2DG)", "result": 3, "unit": "%"},
      {"measurement": "cell death", "setting": "[7]", "result": "no significant increase in cell death"},
      {"measurement": "decrease in cell number", "setting": "[8]; 2DG alone, compared with FTS", "result": "decrease in cell number, but to a lower extent"},
      {"measurement": "decrease in cell number", "setting": "[9]; 2DG alone, compared with FTS", "result": "decrease in cell number, but to a lower extent"},
      {"measurement": "cell death", "setting": "[10]", "result": "no significant increase in cell death"},
      {"measurement": "total cell number", "setting": "[11]", "result": "induced a decrease in total cell number"},
      {"measurement": "cell death above the levels observed in the controls", "setting": "[12]", "result": "did not cause a significant increase in death"}
    ]},
    {"smiles": "CC(C)=CCC/C(C)=C/CC/C(C)=C/CSc1ccccc1C(=O)O", "note": "[FTS, farnesylthiosalicylic acid]", "values": [
      {"measurement": "cell death", "setting": "Mia Paca cells; FTS alone", "result": "did not induce death"},
      {"measurement": "anchorage-dependent and anchorage-independent growth", "setting": "Mia Paca cells; [13]", "result": "inhibit anchorage-dependent and anchorage-independent growth"},
      {"measurement": "cell death above the levels observed in the controls", "setting": "[1]", "result": "induced death"},
      {"measurement": "total cell number", "setting": "[2]", "result": "induced a decrease in total cell number"},
      {"measurement": "cell death above the levels observed in the controls", "setting": "[3]", "result": "did not cause a significant increase in death"},
      {"measurement": "decrease in the total number of cells", "setting": "[4]; 75 μM FTS alone", "result": "~2", "unit": "fold"},
      {"measurement": "decrease in the total number of cells", "setting": "[5]; 75 μM FTS alone", "result": "~2", "unit": "fold"},
      {"measurement": "percentage of dead cells", "setting": "[6]; 50 μM FTS alone (10 mM glucose)", "result": 4, "unit": "%"},
      {"measurement": "percentage of dead cells", "setting": "[6]; 75 μM FTS alone (10 mM glucose)", "result": 7, "unit": "%"},
      {"measurement": "cell death", "setting": "[7]", "result": "no significant increase in cell death"},
      {"measurement": "cell death", "setting": "panc-1 cells; FTS alone", "result": "did not induce death"},
      {"measurement": "anchorage-dependent and anchorage-independent growth", "setting": "panc-1 cells; [13]", "result": "inhibit anchorage-dependent and anchorage-independent growth"},
      {"measurement": "decrease in the total number of cells", "setting": "[8]; 75 μM FTS alone", "result": "~2", "unit": "fold"},
      {"measurement": "decrease in cell number", "setting": "[9]; 75 μM FTS alone", "result": "~2", "unit": "fold"},
      {"measurement": "cell death", "setting": "[10]", "result": "no significant increase in cell death"},
      {"measurement": "growth arrest and cell death", "setting": "GBM cells", "result": "induce both growth arrest and cell death"},
      {"measurement": "total cell number", "setting": "[11]", "result": "induced a decrease in total cell number"},
      {"measurement": "cell death above the levels observed in the controls", "setting": "[12]", "result": "did not cause a significant increase in death"}
    ]}
  ]
}
